Assay results: US20250339409A1, “USES OF PAN BET INHIBITORS” (VYNE THERAPEUTICS INC., priority 2021, published 2025)

Legend:
[1] = Homogeneity of BETi1 dispersions in NaCMC/saline by light microscopy; assay type: physicochemical; details: suspensions in NaCMC solutions
Procedure: BETi1 is dispersed in 0.5% Sodium Carboxymethyl Cellulose (NaCMC) solution in NaCl saline (0.9% NaCl in water) to receive 4 mg/gram dispersion. […] All dispersions are thermally sterilized.
BETi suspensions at 4 mg/g (0.4%), at 0.4 mg/g (0.04%) and at 0.04 mg/g (0.004%) (Table 38) were prepared in NaCMC solutions as set out in Experimental Method N. The homogeneity (including absence of aggregates of solid particles) of the dispersion was analyzed and confirmed by light microscopy as shown in FIG. 14A-C. […] In the sample at 0.04 mg/g mainly larger crystals were observed, since the smaller ones were probably dissolved.

[2] = tested on: reconstituted human epidermis stimulated with TNF-α and IFN-γ; assay: Reconstituted human epidermis (RHE) vitiligo model: morphological analysis after H/E staining; assay type: cell-based; details: topical on RHE, 48 h
Procedure: To generate the morphological and functional aspects of vitiligo, in vitro reconstituted epidermis with Normal Human Epidermal Keratinocytes (NHEK) and Normal Human Epidermal Melanocytes, darkly pigmented (NHEM-DP) are exposed to a cytokine cocktail (TNF-α and IFN-γ). The cytokine cocktail is applied during 48 hours in the culture medium of epidermis. NHEK are isolated from the fore skin of 3 Caucasian donors, and NHEM-DP are isolated from 1 donor. The tissues are cultured at the air-liquid interface in Epilife medium (Fisher Scientific, M-EPI-500-A) containing supplements and antibiotics (Gentamycin, Fisher Scientific, 15710-049). […] Three epidermis samples per condition are fixed in 4% formaldehyde solution and embedded in paraffin for further analysis (morphology analysis, melanin and melanocytes localisation/quantification). […] The tissue morphology is analyzed through a Hematoxylin/Eosin (H/E) staining. […] Formulations containing four doses of BETi1, the BETi1 vehicle (placebo) and JAK inhibitor, were evaluated in RHE TNF-α/IFN-γ vitiligo model as described in Experimental section Methods C and D and representative images of H/E stained epidermis sections are shown in FIG. 4A-H. Treatments of the RHEs with each of the formulations were initiated at day 9 of their reconstitution process. […]

right knee joint = assay: Toxicity in dogs after intra-articular injection: mortality, pathology, knee joint histopathology (Mankin score); assay type: in vivo; details: dog
Text: The purpose of this study was to determine the maximum tolerated dose and potential toxicity of BETi1 when administered by intra-articular injection to Beagle dogs and to determine local and systemic toxicokinetic characteristics associated with treatment of Beagle dogs with BETi1 formulations.
16 Beagle dogs (8 males, 8 females) were assigned to four treatment groups to determine toxicity of BETi1 formulations following intra-articular injection.
The experimental groups are presented below: • Group 1: Control; 0 mg of BETi1/animal dose • Group 2: Low Dose; 7.5 mg of BETi1/animal dose • Group 3: Mid Dose; 75 mg of BETi1/animal dose • Group 4: High Dose; 150 mg of BETi1/animal dose […]
Several features were measured in treated dogs, including viability, clinical observation, body weight, food consumption, clinical pathology (hematology, coagulation, serum chemistry, urinalysis), toxicokinetics, and pathology.
For all animals from the study, representative samples of organs and all gross lesions and masses from all groups were removed from fixative, trimmed, processed, embedded in paraffin, sectioned, stained with hematoxylin and eosin, and examined microscopically. […] A modified Semi-Quantitative Mankin scoring system was used to in evaluation of right knee joint histopathology, as shown in Table 48 below: […]

SMILES: Cn1cc(-c2cccc(O)c2Oc2ccccc2)c2cc[nH]c2c1=O [BETi1]
- aggregates of API particles in dispersions [1]: no visible aggregates of API particles
- morphological alteration of RHE (H/E staining) [2]: did not induce any morphological alteration
- tolerability, synovium findings (right knee joint; intra-articular 7.5, 75, 150 mg, 28 days): overall well-tolerated
- total Mankin score, right knee joint (right knee joint; intra-articular, 14-points scale): total Mankin score of zero except for one animal at 75 mg dose
